{"source": "paper PMC8518114", "about": "“Safety, tolerability and pharmacokinetics of emodepside, a potential novel treatment for onchocerciasis (river blindness), in healthy male subjects” (British Journal of Clinical Pharmacology, 2021)", "system": "healthy male subjects", "test": "Safety: treatment-emergent adverse events, MAD study", "format": "in vivo, human", "method": "Safety was assessed by monitoring adverse events (AEs) throughout the studies that were coded using the standard Medical Dictionary for Regulatory Activities (MedDRA) dictionary (versions 19.0 [SAD part 1], 20.0 [SAD part 2] and 21.1 [MAD]). Other safety monitoring included 12‐lead electrocardiography recordings, measurement of vital signs (systolic and diastolic blood pressure and heart rate), physical and neurological (Hamilton depression rating scale[17] and Beck depression inventory‐II fastscreen[18] [SAD only], mental status examination, cranial nerves assessment and motor system examination, sensation to light touch, coordination/cerebellar function assessment, Romberg's test, gait test, daytime sleepiness assessment [SAD and MAD studies]) examinations, haematology, biochemistry and urinalysis. To minimise risks in the SAD and MAD studies, subjects were dosed sequentially using sentinels in each cohort (1 IP, 1 placebo) as per European Medicines Agency guidelines.[19] If the previous dose was well tolerated, with no safety concerns, dose escalation was decided by the Safety Review Group after reviewing safety and PK data from all available cohorts. Moreover, treatment with the highest dose in the SAD study was repeated (cohort 10) for regular ophthalmological evaluations (assessments available as supplementary information) to better characterise visual AEs observed in the SAD study. Regular ophthalmological assessments were also performed in the MAD study."}
{"smiles": "CC(C)C[C@H]1C(=O)O[C@H](Cc2ccc(N3CCOCC3)cc2)C(=O)N(C)[C@@H](CC(C)C)C(=O)O[C@H](C)C(=O)N(C)[C@@H](CC(C)C)C(=O)O[C@H](Cc2ccc(N3CCOCC3)cc2)C(=O)N(C)[C@@H](CC(C)C)C(=O)O[C@H](C)C(=O)N1C", "note": "[emodepside]", "values": [{"measurement": "Any TEAE", "setting": "LSF 5 mg OD n = 6", "result": "5 (83.3) n (%)"}, {"measurement": "TEAE: Eye disorders", "setting": "LSF 5 mg OD n = 6", "result": "3 (50.0) n (%)"}, {"measurement": "TEAE: Gastrointestinal disorders", "setting": "LSF 5 mg OD n = 6", "result": "2 (33.3) n (%)"}, {"measurement": "TEAE: General disorders and administration site disorders", "setting": "LSF 5 mg OD n = 6", "result": "1 (16.7) n (%)"}, {"measurement": "TEAE: Immune system disorders", "setting": "LSF 5 mg OD n = 6", "result": "0 n (%)"}, {"measurement": "TEAE: Infections and infestations", "setting": "LSF 5 mg OD n = 6", "result": "4 (66.7) n (%)"}, {"measurement": "TEAE: Injury, poisoning and procedural complications", "setting": "LSF 5 mg OD n = 6", "result": "0 n (%)"}, {"measurement": "TEAE: Investigations", "setting": "LSF 5 mg OD n = 6", "result": "0 n (%)"}, {"measurement": "TEAE: Metabolism and nutrition disorders", "setting": "LSF 5 mg OD n = 6", "result": "0 n (%)"}, {"measurement": "TEAE: Musculoskeletal and connective tissue disorders", "setting": "LSF 5 mg OD n = 6", "result": "2 (33.3) n (%)"}, {"measurement": "TEAE: Nervous system disorders", "setting": "LSF 5 mg OD n = 6", "result": "2 (33.3) n (%)"}, {"measurement": "TEAE: Psychiatric disorders", "setting": "LSF 5 mg OD n = 6", "result": "2 (33.3) n (%)"}, {"measurement": "TEAE: Respiratory, thoracic and mediastinal disorders", "setting": "LSF 5 mg OD n = 6", "result": "1 (16.7) n (%)"}, {"measurement": "TEAE: Skin and subcutaneous tissue disorders", "setting": "LSF 5 mg OD n = 6", "result": "1 (16.7) n (%)"}, {"measurement": "TEAE: Surgical and medicinal procedures", "setting": "LSF 5 mg OD n = 6", "result": "0 n (%)"}, {"measurement": "Any TEAE", "setting": "LSF 10 mg BID n = 6", "result": "6 (100) n (%)"}, {"measurement": "TEAE: Eye disorders", "setting": "LSF 10 mg BID n = 6", "result": "3 (50.0) n (%)"}, {"measurement": "TEAE: Gastrointestinal disorders", "setting": "LSF 10 mg BID n = 6", "result": "0 n (%)"}, {"measurement": "TEAE: General disorders and administration site disorders", "setting": "LSF 10 mg BID n = 6", "result": "1 (16.7) n (%)"}, {"measurement": "TEAE: Immune system disorders", "setting": "LSF 10 mg BID n = 6", "result": "1 (16.7) n (%)"}, {"measurement": "TEAE: Injury, poisoning and procedural complications", "setting": "LSF 10 mg BID n = 6", "result": "1 (16.7) n (%)"}, {"measurement": "TEAE: Investigations", "setting": "LSF 10 mg BID n = 6", "result": "1 (16.7) n (%)"}, {"measurement": "TEAE: Metabolism and nutrition disorders", "setting": "LSF 10 mg BID n = 6", "result": "0 n (%)"}, {"measurement": "TEAE: Musculoskeletal and connective tissue disorders", "setting": "LSF 10 mg BID n = 6", "result": "1 (16.7) n (%)"}, {"measurement": "TEAE: Nervous system disorders", "setting": "LSF 10 mg BID n = 6", "result": "0 n (%)"}, {"measurement": "TEAE: Psychiatric disorders", "setting": "LSF 10 mg BID n = 6", "result": "0 n (%)"}, {"measurement": "TEAE: Respiratory, thoracic and mediastinal disorders", "setting": "LSF 10 mg BID n = 6", "result": "0 n (%)"}, {"measurement": "TEAE: Skin and subcutaneous tissue disorders", "setting": "LSF 10 mg BID n = 6", "result": "0 n (%)"}, {"measurement": "TEAE: Surgical and medicinal procedures", "setting": "LSF 10 mg BID n = 6", "result": "0 n (%)"}, {"measurement": "Any TEAE", "setting": "LSF 10 mg OD n = 6", "result": "6 (100.0) n (%)"}, {"measurement": "TEAE: Eye disorders", "setting": "LSF 10 mg OD n = 6", "result": "1 (16.7) n (%)"}, {"measurement": "TEAE: Gastrointestinal disorders", "setting": "LSF 10 mg OD n = 6", "result": "0 n (%)"}, {"measurement": "TEAE: General disorders and administration site disorders", "setting": "LSF 10 mg OD n = 6", "result": "1 (16.7) n (%)"}, {"measurement": "TEAE: Immune system disorders", "setting": "LSF 10 mg OD n = 6", "result": "0 n (%)"}, {"measurement": "TEAE: Infections and infestations", "setting": "LSF 10 mg OD n = 6", "result": "4 (66.7) n (%)"}, {"measurement": "TEAE: Injury, poisoning and procedural complications", "setting": "LSF 10 mg OD n = 6", "result": "0 n (%)"}, {"measurement": "TEAE: Investigations", "setting": "LSF 10 mg OD n = 6", "result": "0 n (%)"}, {"measurement": "TEAE: Metabolism and nutrition disorders", "setting": "LSF 10 mg OD n = 6", "result": "1 (16.7) n (%)"}, {"measurement": "TEAE: Musculoskeletal and connective tissue disorders", "setting": "LSF 10 mg OD n = 6", "result": "2 (33.3) n (%)"}, {"measurement": "TEAE: Nervous system disorders", "setting": "LSF 10 mg OD n = 6", "result": "0 n (%)"}, {"measurement": "TEAE: Psychiatric disorders", "setting": "LSF 10 mg OD n = 6", "result": "1 (16.7) n (%)"}, {"measurement": "TEAE: Respiratory, thoracic and mediastinal disorders", "setting": "LSF 10 mg OD n = 6", "result": "0 n (%)"}, {"measurement": "TEAE: Skin and subcutaneous tissue disorders", "setting": "LSF 10 mg OD n = 6", "result": "1 (16.7) n (%)"}, {"measurement": "TEAE: Surgical and medicinal procedures", "setting": "LSF 10 mg OD n = 6", "result": "1 (16.7) n (%)"}]}
